Source: ChEMBL document CHEMBL1129851, “Synthesis and structural optimization of 7-(3,3-disubstituted-1-pyrrolidinyl)-1-cyclopropyl-6-fluoro-1,4-dihydro-8-methoxy-4-oxo-3-quinolinecarboxylic acids as antibacterial agents” (1997)
Converted amounts (≈) assume the structure as drawn.

Key:
Type in all cases: functional
Enterococcus faecalis = assay: Minimum inhibitory concentration in vitro against Enterococcus faecalis LS-101
Escherichia coli = assay: Minimum inhibitory concentration in vitro against Escherichia coli NIHJ JC-2
Staphylococcus aureus [1] = assay: Minimum inhibitory concentration vitro against Staphylococcus aureus No.88
Streptococcus pneumoniae = assay: Minimum inhibitory concentration in vitro against Streptococcus pneumoniae Type III
Staphylococcus aureus [2] = assay: Minimum inhibitory concentration in vitro against Staphylococcus aureus FDA 209P

Row | SMILES | MIC (Enterococcus faecalis) [µg/mL] | MIC (Escherichia coli) [µg/mL] | MIC (Staphylococcus aureus [1]) [µg/mL] | MIC (Streptococcus pneumoniae) [µg/mL] | MIC (Staphylococcus aureus [2]) [µg/mL]
1 | COc1c(N2CCC(CN)(CO)C2)c(F)cc2c(=O)c(C(=O)O)cn(C3CC3)c12 (stereo not drawn) | 0.2 (≈ 0.493 µM) | 0.78 (≈ 1.92 µM) | 50 (≈ 123 µM) | 0.39 (≈ 0.962 µM) | 0.1 (≈ 0.247 µM)
2 | COc1c(N2CCC(CN)(CF)C2)c(F)cc2c(=O)c(C(=O)O)cn(C3CC3)c12 (stereo not drawn) | 0.05 (≈ 0.123 µM) | 0.05 (≈ 0.123 µM) | 1.56 (≈ 3.83 µM) | 0.05 (≈ 0.123 µM) | 0.012 (≈ 0.0295 µM)
3 | COc1c(N2CCC(O)(CN)C2)c(F)cc2c(=O)c(C(=O)O)cn(C3CC3)c12 (stereo not drawn) | 0.2 (≈ 0.511 µM) | 0.39 (≈ 0.996 µM) | 50 (≈ 128 µM) | 0.2 (≈ 0.511 µM) | 0.1 (≈ 0.255 µM)
4 | COc1c(N2CC[C@@](CN)(CF)C2)c(F)cc2c(=O)c(C(=O)O)cn(C3CC3)c12 | 0.05 (≈ 0.123 µM) | 0.05 (≈ 0.123 µM) | 0.78 (≈ 1.91 µM) | 0.05 (≈ 0.123 µM) | 0.012 (≈ 0.0295 µM)
5 | COc1c(N2CCOC(CN)C2)c(F)cc2c(=O)c(C(=O)O)cn(C3CC3)c12 (stereo not drawn) | 0.05 (≈ 0.128 µM) | 0.2 (≈ 0.511 µM) | 6.25 (≈ 16 µM) | 0.2 (≈ 0.511 µM) | 0.025 (≈ 0.0639 µM)
6 | NCC1CN(c2cc3c(cc2F)c(=O)c(C(=O)O)cn3C2CC2)CCO1 (stereo not drawn) | – | 0.39 (≈ 1.08 µM) | – | 0.39 (≈ 1.08 µM) | 0.2 (≈ 0.553 µM)
7 | COc1c(N2CCC(C)(CN)C2)c(F)cc2c(=O)c(C(=O)O)cn(C3CC3)c12 (stereo not drawn) | 0.05 (≈ 0.128 µM) | 0.1 (≈ 0.257 µM) | 1.56 (≈ 4.01 µM) | 0.05 (≈ 0.128 µM) | 0.012 (≈ 0.0308 µM)
8 | NCC1CN(c2c(F)cc3c(=O)c(C(=O)O)cn(C4CC4)c3c2Cl)CCO1 (stereo not drawn) | – | 0.1 (≈ 0.253 µM) | – | 0.1 (≈ 0.253 µM) | 0.012 (≈ 0.0303 µM)
9 | NCC1CN(c2c(F)cc3c(=O)c(C(=O)O)cn(C4CC4)c3c2F)CCO1 (stereo not drawn) | – | 0.1 (≈ 0.264 µM) | – | 0.1 (≈ 0.264 µM) | 0.025 (≈ 0.0659 µM)
10 | CNCC1(CF)CCN(c2c(F)cc3c(=O)c(C(=O)O)cn(C4CC4)c3c2OC)C1 (stereo not drawn) | 0.05 (≈ 0.119 µM) | 0.1 (≈ 0.237 µM) | 1.56 (≈ 3.7 µM) | 0.2 (≈ 0.475 µM) | 0.025 (≈ 0.0593 µM)
11 | COc1c(N2CC[C@](CN)(CF)C2)c(F)cc2c(=O)c(C(=O)O)cn(C3CC3)c12 | 0.05 (≈ 0.123 µM) | 0.05 (≈ 0.123 µM) | 3.13 (≈ 7.68 µM) | 0.05 (≈ 0.123 µM) | 0.012 (≈ 0.0295 µM)
12 | COc1c(N2CCC(CF)(CN(C)C)C2)c(F)cc2c(=O)c(C(=O)O)cn(C3CC3)c12 (stereo not drawn) | 0.2 (≈ 0.459 µM) | 0.39 (≈ 0.896 µM) | 6.25 (≈ 14.4 µM) | 0.2 (≈ 0.459 µM) | 0.1 (≈ 0.23 µM)
13 | O=C(O)c1cn(C2CC2)c2cc(N3CCNCC3)c(F)cc2c1=O [CIPROFLOXACIN] | 0.2 (≈ 0.604 µM) | – | > 100 | 0.39 (≈ 1.18 µM) | 0.2 (≈ 0.604 µM)
14 | CC1COc2c(N3CCN(C)CC3)c(F)cc3c(=O)c(C(=O)O)cn1c23 (stereo not drawn) [OFLOXACIN] | 0.39 (≈ 1.08 µM) | 0.05 (≈ 0.138 µM) | 50 (≈ 138 µM) | 0.78 (≈ 2.16 µM) | 0.2 (≈ 0.553 µM)
15 | C[C@@H]1CN(c2c(F)c(N)c3c(=O)c(C(=O)O)cn(C4CC4)c3c2F)C[C@H](C)N1 [SPARFLOXACIN] | 0.1 (≈ 0.255 µM) | 0.025 (≈ 0.0637 µM) | 12.5 (≈ 31.9 µM) | 0.1 (≈ 0.255 µM) | 0.05 (≈ 0.127 µM)
16 | NC1CCN(c2nc3c(cc2F)c(=O)c(C(=O)O)cn3-c2ccc(F)cc2F)C1 (stereo not drawn) [TOSUFLOXACIN] | 0.05 (≈ 0.124 µM) | 0.025 (≈ 0.0618 µM) | > 25 | 0.1 (≈ 0.247 µM) | 0.025 (≈ 0.0618 µM)
